# Assay results from US10870832B2, “Use of small molecules to enhance MAFA expression in pancreatic endocrine cells” (Janssen Biotech, Inc., priority 2014, dated 2020).
# Assays:
# Assay in all cases: Kinase profiling of R428
# Type in all cases: biochemical
# [1] = biological target: Aurora-B(h) (Homo sapiens, UniProt Q96GD4); details: for efficiency in targeting Aurora-B(h): 100 μM ATP, lower number = more robust inhibition
# Description: (§1) The efficiency of the AXL inhibitor R428 for targeting different kinases was assessed by Kinase Profiling Services using 100 μM ATP concentration (EMD Millipore). R428 was tested at 1 and 10 μM. Table IV lists the kinases profiled along with the efficiency in targeting the kinases with a lower number indicating a more robust inhibition of a particular kinase.
# [2] = biological target: Blk(h) (Homo sapiens, UniProt P51451); details: 100 μM ATP, lower number = more robust inhibition
# Blk(h), sequence (P51451 whole entry): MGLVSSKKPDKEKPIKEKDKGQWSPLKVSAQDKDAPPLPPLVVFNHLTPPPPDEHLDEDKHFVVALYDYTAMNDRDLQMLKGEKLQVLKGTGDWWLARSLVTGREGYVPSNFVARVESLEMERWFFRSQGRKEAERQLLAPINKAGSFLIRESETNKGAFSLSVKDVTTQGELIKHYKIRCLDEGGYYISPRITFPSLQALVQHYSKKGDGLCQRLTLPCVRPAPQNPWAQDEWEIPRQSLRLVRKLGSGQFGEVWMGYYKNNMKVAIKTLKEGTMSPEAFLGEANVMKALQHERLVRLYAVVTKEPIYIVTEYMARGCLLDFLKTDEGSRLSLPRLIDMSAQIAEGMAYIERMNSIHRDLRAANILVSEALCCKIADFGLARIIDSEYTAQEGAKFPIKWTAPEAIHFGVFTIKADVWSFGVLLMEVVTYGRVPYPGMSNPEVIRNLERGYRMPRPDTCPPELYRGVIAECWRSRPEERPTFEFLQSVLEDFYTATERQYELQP
# Description: as §1
# [3] = biological target: CDK1/cyclinB (Hh) (Homo sapiens, UniProt P06493); details: 100 μM ATP, lower number = more robust inhibition
# CDK1/cyclinB (Hh), sequence (P06493 whole entry): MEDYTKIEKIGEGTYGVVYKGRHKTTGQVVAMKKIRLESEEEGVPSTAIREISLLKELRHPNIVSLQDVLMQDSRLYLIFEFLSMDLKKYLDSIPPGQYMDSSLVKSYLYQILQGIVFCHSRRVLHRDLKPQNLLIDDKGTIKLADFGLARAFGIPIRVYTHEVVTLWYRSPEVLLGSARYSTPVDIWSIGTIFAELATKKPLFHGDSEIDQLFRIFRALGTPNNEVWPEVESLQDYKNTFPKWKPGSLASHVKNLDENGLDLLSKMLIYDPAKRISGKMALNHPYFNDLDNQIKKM
# CDK1/cyclinB (Hh), sequence (P14635 whole entry partner): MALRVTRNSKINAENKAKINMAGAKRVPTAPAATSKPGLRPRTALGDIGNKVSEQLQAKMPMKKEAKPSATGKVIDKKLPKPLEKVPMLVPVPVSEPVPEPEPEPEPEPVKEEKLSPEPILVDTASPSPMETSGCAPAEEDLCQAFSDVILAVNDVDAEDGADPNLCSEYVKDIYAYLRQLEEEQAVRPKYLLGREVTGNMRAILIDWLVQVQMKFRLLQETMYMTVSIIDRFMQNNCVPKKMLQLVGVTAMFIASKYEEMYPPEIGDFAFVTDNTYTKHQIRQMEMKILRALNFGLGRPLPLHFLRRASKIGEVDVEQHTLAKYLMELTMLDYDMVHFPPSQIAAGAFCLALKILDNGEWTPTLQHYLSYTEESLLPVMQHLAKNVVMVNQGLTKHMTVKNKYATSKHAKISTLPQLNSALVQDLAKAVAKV
# Description: as §1
# [4] = biological target: CDK5/p35(h) (Homo sapiens, UniProt Q00535); details: 100 μM ATP, lower number = more robust inhibition
# Description: as §1
# [5] = biological target: CHK1(h) (Homo sapiens, UniProt O14757); details: 100 μM ATP, lower number = more robust inhibition
# CHK1(h), sequence (O14757 whole entry): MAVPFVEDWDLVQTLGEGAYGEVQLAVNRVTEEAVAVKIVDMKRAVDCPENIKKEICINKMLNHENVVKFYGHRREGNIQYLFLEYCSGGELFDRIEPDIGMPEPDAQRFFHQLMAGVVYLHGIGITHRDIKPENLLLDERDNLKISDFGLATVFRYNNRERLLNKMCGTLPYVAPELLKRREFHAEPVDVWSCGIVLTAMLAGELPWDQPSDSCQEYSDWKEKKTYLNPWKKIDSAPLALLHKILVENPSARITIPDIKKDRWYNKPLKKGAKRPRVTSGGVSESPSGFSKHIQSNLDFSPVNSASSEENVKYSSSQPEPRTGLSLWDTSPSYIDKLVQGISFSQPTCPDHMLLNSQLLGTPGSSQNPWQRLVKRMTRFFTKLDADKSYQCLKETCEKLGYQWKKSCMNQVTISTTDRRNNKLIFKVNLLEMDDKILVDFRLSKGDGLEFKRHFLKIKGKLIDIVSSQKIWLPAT
# Description: as §1
# [6] = biological target: CK2(h) (Homo sapiens, UniProt P68400); details: 100 μM ATP, lower number = more robust inhibition
# Description: as §1
# [7] = biological target: CK2α2(h) (Homo sapiens, UniProt P19784); details: 100 μM ATP, lower number = more robust inhibition
# CK2α2(h), sequence (P19784 whole entry): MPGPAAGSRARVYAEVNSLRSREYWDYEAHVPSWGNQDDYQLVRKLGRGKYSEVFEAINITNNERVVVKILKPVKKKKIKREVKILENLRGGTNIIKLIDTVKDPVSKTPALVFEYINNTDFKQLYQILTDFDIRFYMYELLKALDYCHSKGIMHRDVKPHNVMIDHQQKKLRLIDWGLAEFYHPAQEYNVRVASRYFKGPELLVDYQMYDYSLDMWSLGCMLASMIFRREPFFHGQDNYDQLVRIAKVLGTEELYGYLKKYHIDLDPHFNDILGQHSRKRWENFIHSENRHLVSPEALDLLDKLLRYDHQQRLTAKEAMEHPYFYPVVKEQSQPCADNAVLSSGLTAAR
# Description: as §1
# [8] = biological target: CaMKIδ(h) (Homo sapiens, UniProt Q8IU85); details: 100 μM ATP, lower number = more robust inhibition
# CaMKIδ(h), sequence (Q8IU85 whole entry): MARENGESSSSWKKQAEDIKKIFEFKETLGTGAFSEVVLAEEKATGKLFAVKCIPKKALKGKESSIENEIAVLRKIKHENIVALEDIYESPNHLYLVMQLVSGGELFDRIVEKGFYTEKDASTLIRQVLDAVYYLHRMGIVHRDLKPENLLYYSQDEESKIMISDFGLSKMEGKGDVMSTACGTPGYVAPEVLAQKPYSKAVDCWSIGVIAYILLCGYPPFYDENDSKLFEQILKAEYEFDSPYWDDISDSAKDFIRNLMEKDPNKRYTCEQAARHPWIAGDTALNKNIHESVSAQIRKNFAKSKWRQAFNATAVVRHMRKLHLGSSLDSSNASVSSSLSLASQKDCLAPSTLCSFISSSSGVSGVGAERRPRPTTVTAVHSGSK
# Description: as §1
# [9] = biological target: EGFR(h) (Homo sapiens, UniProt P00533); details: 100 μM ATP, lower number = more robust inhibition
# Description: as §1
# [10] = biological target: T1, Flt3(h) (Homo sapiens, UniProt P36888); details: for efficiency in targeting Flt3(h): 100 μM ATP, lower number = more robust inhibition
# T1 sequence (P36888 27-993): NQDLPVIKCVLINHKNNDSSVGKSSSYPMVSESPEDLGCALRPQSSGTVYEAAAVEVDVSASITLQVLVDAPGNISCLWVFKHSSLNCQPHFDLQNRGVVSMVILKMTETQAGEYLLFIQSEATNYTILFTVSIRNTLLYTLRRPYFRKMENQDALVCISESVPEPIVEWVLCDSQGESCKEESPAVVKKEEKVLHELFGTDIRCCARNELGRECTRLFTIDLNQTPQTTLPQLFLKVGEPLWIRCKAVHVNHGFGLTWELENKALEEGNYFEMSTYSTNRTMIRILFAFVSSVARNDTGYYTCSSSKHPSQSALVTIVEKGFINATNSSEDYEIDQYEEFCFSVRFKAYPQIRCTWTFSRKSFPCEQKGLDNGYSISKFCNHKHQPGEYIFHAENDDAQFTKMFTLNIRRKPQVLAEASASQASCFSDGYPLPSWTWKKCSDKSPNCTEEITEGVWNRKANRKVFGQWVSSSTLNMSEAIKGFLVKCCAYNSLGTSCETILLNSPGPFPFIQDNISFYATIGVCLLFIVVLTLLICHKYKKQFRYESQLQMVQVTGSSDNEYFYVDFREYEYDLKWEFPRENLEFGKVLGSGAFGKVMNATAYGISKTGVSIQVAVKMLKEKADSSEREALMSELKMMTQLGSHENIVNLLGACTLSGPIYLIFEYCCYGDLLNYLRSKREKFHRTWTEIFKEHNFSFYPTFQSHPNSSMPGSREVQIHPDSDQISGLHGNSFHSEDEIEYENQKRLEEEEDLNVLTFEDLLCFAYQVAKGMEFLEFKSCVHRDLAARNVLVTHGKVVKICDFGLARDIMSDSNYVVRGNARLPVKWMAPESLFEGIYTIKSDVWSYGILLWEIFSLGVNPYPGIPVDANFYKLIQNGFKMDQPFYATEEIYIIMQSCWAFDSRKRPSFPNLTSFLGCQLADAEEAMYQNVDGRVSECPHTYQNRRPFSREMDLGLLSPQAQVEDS
# Description: as §1
# [11] = biological target: GSK313(h) (Homo sapiens, UniProt P49841); details: 100 μM ATP, lower number = more robust inhibition
# Description: as §1
# [12] = biological target: PKBα(h) (Homo sapiens, UniProt P31749); details: 100 μM ATP, lower number = more robust inhibition, read-out: efficiency in targeting PKBα(h)
# PKBα(h), sequence (P31749 whole entry): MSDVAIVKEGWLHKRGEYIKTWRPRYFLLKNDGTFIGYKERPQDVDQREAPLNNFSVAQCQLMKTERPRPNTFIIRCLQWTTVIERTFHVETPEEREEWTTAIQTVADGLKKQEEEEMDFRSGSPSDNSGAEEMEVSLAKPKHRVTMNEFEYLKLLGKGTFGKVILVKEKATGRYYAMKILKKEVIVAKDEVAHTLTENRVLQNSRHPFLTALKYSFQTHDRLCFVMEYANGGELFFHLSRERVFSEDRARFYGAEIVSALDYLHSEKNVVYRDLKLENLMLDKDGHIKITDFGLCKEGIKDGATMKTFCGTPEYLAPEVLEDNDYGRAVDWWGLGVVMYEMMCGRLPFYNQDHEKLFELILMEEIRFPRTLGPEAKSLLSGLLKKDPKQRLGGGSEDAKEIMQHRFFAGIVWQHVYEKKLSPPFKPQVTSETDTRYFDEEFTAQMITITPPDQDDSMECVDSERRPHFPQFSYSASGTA
# Description: as §1
# [13] = biological target: PKCα(h) (Homo sapiens, UniProt P17252); details: 100 μM ATP, lower number = more robust inhibition
# Description: as §1
# [14] = biological target: PKCβ1(h) (Homo sapiens, UniProt P05771); details: 100 μM ATP, lower number = more robust inhibition
# Description: as §1
# [15] = biological target: Pim-2(h) (Homo sapiens, UniProt Q9P1W9); details: 100 μM ATP, lower number = more robust inhibition
# Pim-2(h), sequence (Q9P1W9 whole entry): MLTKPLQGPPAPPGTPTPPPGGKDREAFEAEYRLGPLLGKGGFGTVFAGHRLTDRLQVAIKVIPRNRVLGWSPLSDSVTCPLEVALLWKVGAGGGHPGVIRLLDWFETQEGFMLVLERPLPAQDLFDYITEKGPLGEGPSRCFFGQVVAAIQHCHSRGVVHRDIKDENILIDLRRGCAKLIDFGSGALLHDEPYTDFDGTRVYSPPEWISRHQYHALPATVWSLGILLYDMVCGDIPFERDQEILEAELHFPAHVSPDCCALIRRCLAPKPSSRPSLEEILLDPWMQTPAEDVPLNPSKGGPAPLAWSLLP
# Description: as §1
# [16] = biological target: SAPK4(h) (Homo sapiens, UniProt O15264); details: 100 μM ATP, lower number = more robust inhibition
# SAPK4(h), sequence (O15264 whole entry): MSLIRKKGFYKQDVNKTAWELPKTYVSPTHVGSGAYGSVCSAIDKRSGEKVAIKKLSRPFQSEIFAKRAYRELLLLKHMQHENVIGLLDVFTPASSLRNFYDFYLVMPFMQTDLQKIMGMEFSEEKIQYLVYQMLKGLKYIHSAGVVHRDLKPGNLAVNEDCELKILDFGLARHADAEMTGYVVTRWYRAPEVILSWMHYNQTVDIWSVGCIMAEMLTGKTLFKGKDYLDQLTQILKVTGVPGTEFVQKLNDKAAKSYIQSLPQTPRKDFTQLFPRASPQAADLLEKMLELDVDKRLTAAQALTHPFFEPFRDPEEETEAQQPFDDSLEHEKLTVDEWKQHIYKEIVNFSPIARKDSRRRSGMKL
# Description: as §1
# [17] = biological target: ZAP-70(h) (Homo sapiens, UniProt P43403); details: 100 μM ATP, lower number = more robust inhibition
# Description: as §1
# [18] = biological target: ZIPK(h) (Homo sapiens, UniProt O43293); details: 100 μM ATP, lower number = more robust inhibition
# Description: as §1
# Aurora-B(h), sequence (Q96GD4 whole entry): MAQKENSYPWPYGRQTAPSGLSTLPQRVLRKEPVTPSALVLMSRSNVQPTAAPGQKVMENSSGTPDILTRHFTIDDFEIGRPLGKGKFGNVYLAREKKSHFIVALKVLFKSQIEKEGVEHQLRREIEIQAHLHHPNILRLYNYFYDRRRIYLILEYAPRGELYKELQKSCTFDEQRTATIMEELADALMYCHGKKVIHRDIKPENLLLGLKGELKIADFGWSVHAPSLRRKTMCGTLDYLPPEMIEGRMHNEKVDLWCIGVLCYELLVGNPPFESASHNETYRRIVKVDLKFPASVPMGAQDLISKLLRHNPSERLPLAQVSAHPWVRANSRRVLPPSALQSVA
smiles,measurement,setting,value
"Nc1nc(Nc2ccc3c(c2)CC[C@@H](N2CCCC2)CC3)nn1-c1cc2c(nn1)-c1ccccc1CCC2 [R428, 1H-1,2,4-Triazole-3,5-diamine, 1-(6,7-dihydro-5H-benzo[6,7]cyclohepta[1,2-c]pyridazin-3-yl) N3-[(7S)-6,7,8,9-tetrahydro-7-(1-pyrrolidinyl)-5H-benzocyclohepten-2-yl]-]",efficiency in targeting Aurora-B(h),[1]; R428 @ 1 μM,1
same,efficiency in targeting Aurora-B(h),[1]; R428 @ 10 μM,0
same,inhibition of AuroraB (in words),[1]; at 1 and 10 μM,potently inhibits
same,efficiency in targeting Blk(h),[2]; R428 @ 1 μM,27
same,efficiency in targeting Blk(h),[2]; R428 @ 10 μM,2
same,efficiency in targeting CDK1/cyclinB (Hh),[3]; R428 @ 1 μM,101
same,efficiency in targeting CDK1/cyclinB (Hh),[3]; R428 @ 10 μM,88
same,efficiency in targeting CDK5/p35(h),[4]; R428 @ 1 μM,101
same,efficiency in targeting CDK5/p35(h),[4]; R428 @ 10 μM,94
same,efficiency in targeting CHK1(h),[5]; R428 @ 1 μM,71
same,efficiency in targeting CHK1(h),[5]; R428 @ 10 μM,23
same,efficiency in targeting CK2(h),[6]; R428 @ 1 μM,103
same,efficiency in targeting CK2(h),[6]; R428 @ 10 μM,106
same,efficiency in targeting CK2α2(h),[7]; R428 @ 1 μM,112
same,efficiency in targeting CK2α2(h),[7]; R428 @ 10 μM,97
same,efficiency in targeting CaMKIδ(h),[8]; R428 @ 1 μM,76
same,efficiency in targeting CaMKIδ(h),[8]; R428 @ 10 μM,24
same,efficiency in targeting EGFR(h),[9]; R428 @ 1 μM,89
same,efficiency in targeting EGFR(h),[9]; R428 @ 10 μM,40
same,efficiency in targeting Flt3(h),[10]; R428 @ 1 μM,9
same,efficiency in targeting Flt3(h),[10]; R428 @ 10 μM,1
same,inhibition of Flt (in words),[10]; at 1 and 10 μM,potently inhibits
same,efficiency in targeting GSK313(h),[11]; R428 @ 1 μM,106
same,efficiency in targeting GSK313(h),[11]; R428 @ 10 μM,99
same,activity at 1 µM,[12]; R428 @ 1 μM,87%
same,activity at 10 µM,[12]; R428 @ 10 μM,57%
same,efficiency in targeting PKCα(h),[13]; R428 @ 1 μM,101
same,efficiency in targeting PKCα(h),[13]; R428 @ 10 μM,96
same,efficiency in targeting PKCβ1(h),[14]; R428 @ 1 μM,102
same,efficiency in targeting PKCβ1(h),[14]; R428 @ 10 μM,95
same,efficiency in targeting Pim-2(h),[15]; R428 @ 1 μM,87
same,efficiency in targeting Pim-2(h),[15]; R428 @ 10 μM,74
same,efficiency in targeting SAPK4(h),[16]; R428 @ 1 μM,94
same,efficiency in targeting SAPK4(h),[16]; R428 @ 10 μM,91
same,efficiency in targeting ZAP-70(h),[17]; R428 @ 1 μM,92
same,efficiency in targeting ZAP-70(h),[17]; R428 @ 10 μM,66
same,efficiency in targeting ZIPK(h),[18]; R428 @ 1 μM,97
same,efficiency in targeting ZIPK(h),[18]; R428 @ 10 μM,46
